In US12280046B2, “Melanocortin subtype-2 receptor (MC2R) antagonist for the treatment of disease” (Crinetics Pharmaceuticals, Inc., priority 2021, dated 2025):

Tests used:
MCSR = target: T1, MCSR (Homo sapiens, UniProt P33032); experiment: Commercially available MCSR membrane binding assay; details: greater than highest concentration tested
T1 construct: purchased
Protocol: (§1) The selectivity over other human MCR subtypes was evaluated using commercially available MC1R, MC3R, MC4R, and MCSR membrane binding assays. The half maximal inhibitory concentration in the binding assays (IC50) were determined to be greater than the highest concentration tested, or >10,000 nM, >1000 nM, >10,000 nM and >1000 nM for MC1R, MC3R, MC4R and MCSR, respectively. Compound 1 is >2900-fold selective for MC2R versus the other human MCRs.

[1] = test system: basal and ACTH-stimulated cortisol; experiment: Phase 1 SAD study, basal cortisol and ACTH-stimulation test; format: in vivo, human; details: for % suppression in cortisol AUC: high dose ACTH (250 mcg) challenge
Source text: (§2) This Phase 1, first-in-human, double-blind, randomized, placebo-controlled study will evaluate the safety of Compound 1 in healthy volunteers as well as the relationship between exposure and pharmacodynamic (PD) parameters, including ACTH-stimulated and endogenous cortisol secretion measured in blood, saliva, and urine. Results will be used to inform endpoints and other parameters in future later studies in patients with Cushing's disease (CD) or other diseases of excess adrenocorticotropic hormone (ACTH), including Congenital Adrenal Hyperplasia (CAH) and Ectopic ACTH Syndrome (EAS).
(§3) SAD/Part 1: ascending single dose, randomized, placebo-controlled, double-blind; 5 planned and up to 8 total cohorts, n=64. In each cohort, 6 subjects will receive Compound 1, 2 subjects will receive the placebo. Doses will escalate from 10 mg in cohort 1 to no more than 250 mg.
ACTH-stimulation tests are conducted while fasting. For PD analyses, blood samples are collected for measurement of serum cortisol, A4, 17-OHP, aldosterone, and DHEA. A summary of the procedure is as follows: In the “high dose” test, each subject is administered an IV 250 μg dose (for subjects >37 lbs) of cosyntropin (ACTH(1-24)) at the start of each test; in the “low dose” test, 1 mcg is administered instead. At 2 hours after study drug dosing/Time 0 (±5 minutes), collect blood sample. Within 5 minutes, administer cosyntropin IV infusion over 2 minutes. Collect blood sample at Time 30 minutes (5 minutes). Collect blood sample at Time 60 minutes (5 minutes).
Starting on Day −1 until EOS (or ET), fasting pre-dose blood samples are collected <15 minutes prior to dosing (˜0800 hr) for measurement of serum cortisol, A4, 17-OHP, aldosterone, ACTH(1 39), renin, and DHEAS. On Days in which ACTH-stimulation tests are conducted, these tests are done approximately 2 hours post-study drug dosing. Prior to cosyntropin administration, at 2 hours (15 minutes) post-dose, blood samples are collected for measurement of cortisol, A4, 17-OHP, aldosterone, and DHEA. Cosyntropin is then administered to define time 0 of the ACTH-stimulation test. At 2.5 hours (15 minutes) post-dose/30 minutes post-cosyntropin, blood samples are collected for measurement of cortisol. At 3 hours (15 minutes) post-dose/60 minutes post-cosyntropin, blood samples are collected for measurement of cortisol, A4, 17-OHP, aldosterone, and DHEA.
Compound 1 was also evaluated in the context of an ACTH-Stimulation Test, with oral Compound 1 or placebo being administered prior to the intravenous (IV) administration of cosyntropin (ACTH(1-24)). In the absence of pharmacologic intervention, IV administration of ACTH leads to the secretion of cortisol; whereas the pharmacologic intervention can suppress secretion of […] cortisol levels.

[2] = test system: corticosterone and adrenal gland hypertrophy; experiment: Continuous pump-administration of ACTH(1-24) in male rats, 7 days of daily oral dosing; format: in vivo, rat
Protocol: Exogenous ACTH(1-24) (100 μg/kg/day) was administered to male rats via subcutaneously implanted osmotic pumps. The ability of repeated daily oral administration of Compound 1 to suppress corticosterone over 7 days was evaluated.

[3] = test system: basal and ACTH-stimulated cortisol; experiment: Phase 1 MAD study, basal and ACTH-stimulated cortisol; format: in vivo, human
Source text: as §2
(§4) MAD/Part 2: multiple ascending dose, randomized, placebo-controlled, double-blind; 2 planned and up to 4 total cohorts (n=36). In each cohort, 6 subjects will receive Compound 1, 3 subjects will receive the placebo. The doses will not exceed the doses in the SAD.
Starting on Day −1 until EOS (or ET), fasting pre-dose blood samples are collected <15 minutes prior to dosing for measurement of serum cortisol, A4, 17-OHP, aldosterone, ACTH(1 39), renin, and DHEAS. […] Cosyntropin is then administered (250 mcg in the “high dose” test; 1 mcg in the “low dose” test) to define time 0 of the ACTH-stimulation test. […]
At Screening and on Days 2, 3, 5, 6, 7, 8, 10, 11, and 12, fasting blood samples are collected for measurement of serum cortisol at 4 hours (15 minutes) post-dose (˜1200 hr). On Days in which the ACTH-stimulation test is conducted, this collection will be 120 min post-cosyntropin administration such that post-cosyntropin cortisol collection times are Time 30 minutes (5 minutes), Time 60 minutes (5 minutes), and Time 120 minutes (5 minutes).
A 24-hour blood biomarker profile is measured starting Day −1 until Day 1 pre-dose, Day 1 post-dose until Day 2 pre-dose, Day 4 post-dose until Day 5 pre-dose, and Day 9 post-dose until Day 10 pre-dose.

5-HT1B receptor = 5-HT1B receptor (Homo sapiens, UniProt P28222); experiment: 5-HT1B functional dose response, agonist and antagonist modes; format: biochemical
Sequence of 5-HT1B receptor (P28222 whole entry): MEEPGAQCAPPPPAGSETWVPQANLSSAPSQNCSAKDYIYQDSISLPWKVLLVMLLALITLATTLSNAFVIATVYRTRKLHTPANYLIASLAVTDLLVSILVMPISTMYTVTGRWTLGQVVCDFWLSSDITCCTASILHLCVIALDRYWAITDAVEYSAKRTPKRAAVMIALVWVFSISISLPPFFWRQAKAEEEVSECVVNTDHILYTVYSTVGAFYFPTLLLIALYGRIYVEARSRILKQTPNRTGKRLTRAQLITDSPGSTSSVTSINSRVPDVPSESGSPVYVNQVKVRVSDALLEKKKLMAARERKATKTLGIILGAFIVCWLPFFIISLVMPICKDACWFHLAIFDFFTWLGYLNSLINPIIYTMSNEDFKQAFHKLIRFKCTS
Source text: The selectivity of Compound 1 for hMC2R over 5-HT1B is >2200-fold.

MC4R = target: T2, MC4R (Homo sapiens, UniProt P32245); experiment: Commercially available MC4R membrane binding assay; details: greater than highest concentration tested
T2 construct: purchased
T2 sequence (P32245 whole entry): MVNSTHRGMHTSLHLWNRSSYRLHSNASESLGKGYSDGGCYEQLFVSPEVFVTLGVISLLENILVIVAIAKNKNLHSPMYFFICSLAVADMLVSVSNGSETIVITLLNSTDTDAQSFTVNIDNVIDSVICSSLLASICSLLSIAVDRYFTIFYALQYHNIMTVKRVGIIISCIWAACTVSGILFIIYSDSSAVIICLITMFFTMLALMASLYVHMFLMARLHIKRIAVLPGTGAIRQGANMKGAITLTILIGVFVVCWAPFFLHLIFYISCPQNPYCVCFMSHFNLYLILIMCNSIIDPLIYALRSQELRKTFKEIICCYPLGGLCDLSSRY
Protocol: as §1

[4] = Phase 1 MAD study, pharmacokinetics, 40 mg daily over 10 days; format: in vivo, human
Source text: as §2, §4
Pharmacokinetic results for Day 1 and Day 10 from the MAD study using a 40 mg daily dose of Compound 1 over 10 days are shown in FIG. 12. Data shown are mean±SEM. […] The mean half-life was ˜30 hours.

MC3R = target: T3, MC3R (Homo sapiens, UniProt P41968); experiment: Commercially available MC3R membrane binding assay; details: greater than highest concentration tested
T3 construct: purchased
T3 sequence (P41968 whole entry): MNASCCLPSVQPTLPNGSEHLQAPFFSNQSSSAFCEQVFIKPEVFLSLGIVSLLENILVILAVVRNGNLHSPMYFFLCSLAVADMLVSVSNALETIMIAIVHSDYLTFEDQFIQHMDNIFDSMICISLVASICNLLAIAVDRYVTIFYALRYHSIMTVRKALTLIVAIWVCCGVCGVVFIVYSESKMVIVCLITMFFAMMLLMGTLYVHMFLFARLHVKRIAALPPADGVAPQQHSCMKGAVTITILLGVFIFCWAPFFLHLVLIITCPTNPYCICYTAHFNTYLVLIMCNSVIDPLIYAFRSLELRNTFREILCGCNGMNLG
Protocol: as §1

[5] = Phase 1 SAD study, pharmacokinetics in healthy volunteers; format: in vivo, human
Source text: as §2, §3
Data shown are mean±SEM. All doses n=6. Cohort 4 (n=6, 80 mg) was evaluated in the high dose ACTH-stimulation test, while cohort 5 (n=6, 80 mg) was evaluated in the low dose ACTH-stimulation test.

T1 sequence (P33032 whole entry): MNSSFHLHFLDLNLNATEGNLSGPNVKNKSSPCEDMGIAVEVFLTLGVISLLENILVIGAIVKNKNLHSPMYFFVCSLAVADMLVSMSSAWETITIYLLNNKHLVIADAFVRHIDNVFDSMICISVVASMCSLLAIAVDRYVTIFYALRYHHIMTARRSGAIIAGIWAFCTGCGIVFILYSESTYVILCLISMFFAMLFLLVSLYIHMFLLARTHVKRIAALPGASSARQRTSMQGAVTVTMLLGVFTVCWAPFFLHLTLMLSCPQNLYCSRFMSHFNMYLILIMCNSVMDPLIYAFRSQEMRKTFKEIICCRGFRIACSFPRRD

IC50 (MCSR): > 1 µM
selectivity for hMC2R over 5-HT1B (5-HT1B receptor): > 2200 fold
agonistic activity (5-HT1B receptor; agonist mode, no signal up to 3000 nM): no agonistic activity
IC50 (5-HT1B receptor; antagonist mode, read-out: antagonistic activity IC50): ~0.75 µM
IC50 (MC4R): > 10 µM
accumulation with chronic dosing, higher than projected from SAD study results ([4]; 40 mg daily over 10 days): approximately 2.4 fold
half-life ([4]; human, in vivo, oral, 40 mg daily over 10 days): ~30 h
IC50 (MC3R): > 1 µM
Tmax ([5]; human, in vivo, single oral dose, at efficacious doses): ~1 h
half-life ([5]; human, in vivo, single oral dose, healthy volunteers): ~24 h
Structure (SMILES): CCOc1ccccc1-c1ccc(N2CCN(C(=O)C3(C(F)(F)F)CCC3)C[C@H]2CC)c(C(=O)N[C@@H]2CN3CCC2CC3)n1 [Compound 1, 6-(2-ethoxyphenyl)-3-((R)-2-ethyl-4-(1-(trifluoromethyl)cyclobutane-1-carbonyl)piperazin-1-yl)-N—((S)-quinuclidin-3-yl)picolinamide]
% suppression in cortisol AUC ([1]; 10 mg): about 9%
% suppression in cortisol AUC ([1]; 20 mg): about 22%
% suppression in cortisol AUC ([1]; 40 mg): about 36%
acute reduction of basal cortisol ([1]; 80 mg, 2 hours after administration): 56%
% suppression in cortisol AUC ([1]; 80 mg): about 41%
reduction in cortisol levels ([1]; 80 mg, low dose ACTH (1 mcg) stimulation challenge): 48%
adrenal gland hypertrophy (adrenal gland weight and adrenal cortical area) ([2]; 10 and 30 mg/kg/day vs vehicle): ameliorated adrenal gland hypertrophy
corticosterone ([2]; ≥10 mg/kg/day, 1 hour post-dose on Day 1 and Day 7): dose-dependently suppressed
basal and ACTH-stimulated cortisol secretion ([3]; 4 h post-dose throughout the MAD study): suppressed basal and ACTH-stimulated cortisol secretion
basal unstimulated cortisol ([3]; at 24 hours (before the next dose)): suppression of basal unstimulated cortisol was not observed
basal and ACTH-stimulated cortisol levels ([3]; high dose ACTH-stimulation test, after 10 days of dosing): suppressed basal and ACTH-stimulated cortisol levels
Day 1 PK profile and exposures ([4]; 40 mg, Day 1): comparable to the 40 mg single dose from the SAD study
oral bioavailability / exposure ([5]; single ascending oral doses): oral bioavailability with dose-proportional exposure
